PubChem BioAssay (NCI)
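Following 48 hours of exposure in 96-well plates, responses at five concentrations were used to interpolate endpoints linearly. TGI denotes the concentration required for complete inhibition of growth.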

Columns and labels:
Experiment in all cases: growth of human tumour cells (NCI), 48 h
UACC-62 melanoma = test system: UACC-62 melanoma
CCRF-CEM leukemia = test system: CCRF-CEM leukemia
A549 NSCLC = test system: A549 NSCLC
CAKI-1 renal = test system: CAKI-1 renal
SF-295 CNS = test system: SF-295 CNS
SNB-75 CNS = test system: SNB-75 CNS
SW-620 colon = test system: SW-620 colon
HCT-116 colon = test system: HCT-116 colon
NCI-H23 lung = test system: NCI-H23 lung
M19-MEL melanoma = test system: M19-MEL melanoma
UO-31 renal = test system: UO-31 renal
RPMI-8226 leukemia = test system: RPMI-8226 leukemia
OVCAR-8 ovarian = test system: OVCAR-8 ovarian
HOP-62 NSCLC = test system: HOP-62 NSCLC
NCI-H460 lung = test system: NCI-H460 lung
SK-MEL-28 melanoma = test system: SK-MEL-28 melanoma
COLO 205 colon = test system: COLO 205 colon
HL-60(TB) leukemia = test system: HL-60(TB) leukemia
KM20L2 colon = test system: KM20L2 colon
SF-268 CNS = test system: SF-268 CNS
EKVX NSCLC = test system: EKVX NSCLC
SF-539 CNS = test system: SF-539 CNS
SK-MEL-2 melanoma = test system: SK-MEL-2 melanoma
MOLT-4 leukemia = test system: MOLT-4 leukemia
KM12 colon = test system: KM12 colon
RXF 393 renal = test system: RXF 393 renal
TK-10 renal = test system: TK-10 renal
IGROV1 ovarian = test system: IGROV1 ovarian
ACHN renal = test system: ACHN renal
OVCAR-4 ovarian = test system: OVCAR-4 ovarian
LXFL 529 NSCLC = test system: LXFL 529 NSCLC
M14 melanoma = test system: M14 melanoma
NCI-H226 lung = test system: NCI-H226 lung
SR leukemia = test system: SR leukemia
K-562 leukemia = test system: K-562 leukemia
HCC-2998 colon = test system: HCC-2998 colon
UACC-257 melanoma = test system: UACC-257 melanoma
SK-MEL-5 melanoma = test system: SK-MEL-5 melanoma
HOP-92 NSCLC = test system: HOP-92 NSCLC
DLD-1 colon = test system: DLD-1 colon
DMS 114 small cell lung = test system: DMS 114 small cell lung
SNB-19 CNS = test system: SNB-19 CNS
OVCAR-3 ovarian = test system: OVCAR-3 ovarian
HT29 colon = test system: HT29 colon
786-0 renal = test system: 786-0 renal
LOX IMVI melanoma = test system: LOX IMVI melanoma
MALME-3M melanoma = test system: MALME-3M melanoma
NCI-H522 lung = test system: NCI-H522 lung
U251 CNS = test system: U251 CNS
SNB-78 CNS = test system: SNB-78 CNS
SK-OV-3 ovarian = test system: SK-OV-3 ovarian
OVCAR-5 ovarian = test system: OVCAR-5 ovarian
A498 renal = test system: A498 renal
HCT-15 colon = test system: HCT-15 colon
DU-145 prostate = test system: DU-145 prostate
MDA-N = test system: MDA-N
HS 578T breast = test system: HS 578T breast
SN12C renal = test system: SN12C renal
BT-549 breast = test system: BT-549 breast
T-47D breast = test system: T-47D breast
NCI/ADR-RES ovarian = test system: NCI/ADR-RES ovarian
PC-3 prostate = test system: PC-3 prostate
MDA-MB-435 = test system: MDA-MB-435
MCF7 breast = test system: MCF7 breast
MDA-MB-231 breast = test system: MDA-MB-231 breast

SMILES: COC(=O)C1=C(C)N2CCOC2(C)C(C(=O)OC)C1c1ccc[nH]1 (configuration not stated)
- TGI (UACC-62 melanoma): > 100 µM
- TGI (CCRF-CEM leukemia): > 100 µM
- TGI (A549 NSCLC): > 100 µM
- TGI (CAKI-1 renal): > 100 µM
- TGI (SF-295 CNS): > 100 µM
- TGI (SNB-75 CNS): 82.9 µM
- TGI (SW-620 colon): > 100 µM
- TGI (HCT-116 colon): > 100 µM
- TGI (NCI-H23 lung): > 100 µM
- TGI (M19-MEL melanoma): > 100 µM
- TGI (UO-31 renal): > 100 µM
- TGI (RPMI-8226 leukemia): > 100 µM
- TGI (OVCAR-8 ovarian): > 100 µM
- TGI (HOP-62 NSCLC): > 100 µM
- TGI (NCI-H460 lung): > 100 µM
- TGI (SK-MEL-28 melanoma): > 100 µM
- TGI (COLO 205 colon): > 100 µM
- TGI (HL-60(TB) leukemia): > 100 µM
- TGI (KM20L2 colon): > 100 µM
- TGI (SF-268 CNS): > 100 µM
- TGI (EKVX NSCLC): > 100 µM
- TGI (SF-539 CNS): > 100 µM
- TGI (SK-MEL-2 melanoma): > 100 µM
- TGI (MOLT-4 leukemia): > 100 µM
- TGI (KM12 colon): > 100 µM
- TGI (RXF 393 renal): > 100 µM
- TGI (TK-10 renal): > 100 µM
- TGI (IGROV1 ovarian): > 100 µM
- TGI (ACHN renal): > 100 µM
- TGI (OVCAR-4 ovarian): > 100 µM
- TGI (LXFL 529 NSCLC): > 100 µM
- TGI (M14 melanoma): > 100 µM
- TGI (NCI-H226 lung): > 100 µM
- TGI (SR leukemia): > 100 µM
- TGI (K-562 leukemia): > 100 µM
- TGI (HCC-2998 colon): > 100 µM
- TGI (UACC-257 melanoma): > 100 µM
- TGI (SK-MEL-5 melanoma): > 100 µM
- TGI (HOP-92 NSCLC): > 100 µM
- TGI (DLD-1 colon): > 100 µM
- TGI (DMS 114 small cell lung): > 100 µM
- TGI (SNB-19 CNS): > 100 µM
- TGI (OVCAR-3 ovarian): > 100 µM
- TGI (HT29 colon): > 100 µM

SMILES: O=C1NC(=O)C(C(=O)C(=O)Nc2cccc(C(F)(F)F)c2)C(=O)N1
- TGI (UACC-62 melanoma): > 100 µM
- TGI (CCRF-CEM leukemia): > 100 µM
- TGI (A549 NSCLC): > 100 µM
- TGI (CAKI-1 renal): > 100 µM
- TGI (SNB-75 CNS): > 100 µM
- TGI (SW-620 colon): > 100 µM
- TGI (786-0 renal): > 100 µM
- TGI (HCT-116 colon): > 100 µM
- TGI (NCI-H23 lung): > 100 µM
- TGI (M19-MEL melanoma): > 100 µM
- TGI (UO-31 renal): > 100 µM
- TGI (RPMI-8226 leukemia): > 100 µM
- TGI (OVCAR-8 ovarian): > 100 µM
- TGI (LOX IMVI melanoma): > 100 µM
- TGI (HOP-62 NSCLC): > 100 µM
- TGI (NCI-H460 lung): > 100 µM
- TGI (SK-MEL-28 melanoma): > 100 µM
- TGI (MALME-3M melanoma): > 100 µM
- TGI (COLO 205 colon): > 100 µM
- TGI (HL-60(TB) leukemia): > 100 µM
- TGI (KM20L2 colon): > 100 µM
- TGI (NCI-H522 lung): > 100 µM
- TGI (SF-268 CNS): > 100 µM
- TGI (EKVX NSCLC): > 100 µM
- TGI (SF-539 CNS): > 100 µM
- TGI (U251 CNS): > 100 µM
- TGI (SK-MEL-2 melanoma): > 100 µM
- TGI (SNB-78 CNS): > 100 µM
- TGI (MOLT-4 leukemia): > 100 µM
- TGI (KM12 colon): > 100 µM
- TGI (SK-OV-3 ovarian): > 100 µM
- TGI (RXF 393 renal): > 100 µM
- TGI (TK-10 renal): > 100 µM
- TGI (IGROV1 ovarian): > 100 µM
- TGI (ACHN renal): > 100 µM
- TGI (OVCAR-4 ovarian): > 100 µM
- TGI (LXFL 529 NSCLC): > 100 µM
- TGI (OVCAR-5 ovarian): > 100 µM
- TGI (M14 melanoma): > 100 µM
- TGI (K-562 leukemia): > 100 µM
- TGI (HCC-2998 colon): > 100 µM
- TGI (UACC-257 melanoma): > 100 µM
- TGI (SK-MEL-5 melanoma): > 100 µM
- TGI (A498 renal): > 100 µM
- TGI (DLD-1 colon): > 100 µM
- TGI (DMS 114 small cell lung): > 100 µM
- TGI (SNB-19 CNS): > 100 µM
- TGI (OVCAR-3 ovarian): > 100 µM
- TGI (HCT-15 colon): > 100 µM

SMILES: COc1ccc(C(OCC2OC(n3cnc4c(=O)n(Cc5ccccc5[N+](=O)[O-])nnc43)C(O)C2O)(c2ccccc2)c2ccc(OC)cc2)cc1 (configuration not stated)
- TGI (UACC-62 melanoma): 38.8 µM
- TGI (DU-145 prostate): > 100 µM
- TGI (CCRF-CEM leukemia): 20.7 µM
- TGI (MDA-N): 47.6 µM
- TGI (A549 NSCLC): > 100 µM
- TGI (CAKI-1 renal): > 56.7 µM
- TGI (SF-295 CNS): > 100 µM
- TGI (SNB-75 CNS): > 100 µM
- TGI (SW-620 colon): > 100 µM
- TGI (786-0 renal): > 100 µM
- TGI (HCT-116 colon): 13.1 µM
- TGI (NCI-H23 lung): > 90.8 µM
- TGI (UO-31 renal): > 87.4 µM
- TGI (RPMI-8226 leukemia): 15.7 µM
- TGI (OVCAR-8 ovarian): > 100 µM
- TGI (LOX IMVI melanoma): > 39.4 µM
- TGI (HOP-62 NSCLC): > 100 µM
- TGI (HS 578T breast): > 94 µM
- TGI (SN12C renal): 45.7 µM
- TGI (NCI-H460 lung): > 53.1 µM
- TGI (SK-MEL-28 melanoma): 69.5 µM
- TGI (MALME-3M melanoma): 49.2 µM
- TGI (COLO 205 colon): 34.5 µM
- TGI (HL-60(TB) leukemia): 5.85 µM
- TGI (NCI-H522 lung): 48.9 µM
- TGI (SF-268 CNS): > 100 µM
- TGI (BT-549 breast): > 100 µM
- TGI (EKVX NSCLC): > 100 µM
- TGI (SF-539 CNS): 34.1 µM
- TGI (U251 CNS): > 100 µM
- TGI (SK-MEL-2 melanoma): 60.6 µM
- TGI (MOLT-4 leukemia): 9.57 µM
- TGI (KM12 colon): > 92.4 µM
- TGI (SK-OV-3 ovarian): > 100 µM
- TGI (RXF 393 renal): > 59.5 µM
- TGI (T-47D breast): > 100 µM
- TGI (NCI/ADR-RES ovarian): > 100 µM
- TGI (PC-3 prostate): > 100 µM
- TGI (TK-10 renal): 64.1 µM
- TGI (IGROV1 ovarian): > 71.2 µM
- TGI (ACHN renal): 97.9 µM
- TGI (OVCAR-4 ovarian): > 100 µM
- TGI (MDA-MB-435): > 91.4 µM
- TGI (OVCAR-5 ovarian): > 100 µM
- TGI (M14 melanoma): > 100 µM
- TGI (MCF7 breast): > 100 µM
- TGI (NCI-H226 lung): 45.5 µM
- TGI (SR leukemia): 8.88 µM
- TGI (K-562 leukemia): > 57.4 µM
- TGI (HCC-2998 colon): 26.9 µM
- TGI (UACC-257 melanoma): > 100 µM
- TGI (SK-MEL-5 melanoma): > 45.5 µM
- TGI (HOP-92 NSCLC): 23.2 µM
- TGI (A498 renal): 34.5 µM
- TGI (MDA-MB-231 breast): > 61.8 µM
- TGI (SNB-19 CNS): > 100 µM
- TGI (OVCAR-3 ovarian): > 62.3 µM
- TGI (HT29 colon): 59.1 µM
- TGI (HCT-15 colon): 91.2 µM
